{
  "source": "patent US20230174656A1",
  "about": "“T[…] REMDESIVIR COMBINATION THERAPY FOR COVID-19 PNEUMONIA” (priority 2020, published 2023)",
  "origin": "cited, not measured here",
  "key": {"[1]": {"tested_on": "CAR T cell-induced severe or life-threatening CRS", "settings": "cited from earlier work"}, "[2]": {"settings": "cited from earlier work; for geometric mean maximum concentration of TCZ: patients with CAR T cell induced CRS, % CV in brackets"}, "COVID-19 pneumonia": {"tested_on": "COVID-19 pneumonia", "settings": "cited from earlier work"}},
  "note": "Read-outs that look alike come from different tables or passages of the source.",
  "data": [
    {"substance": "TCZ: recombinant humanized monoclonal IgG1κ antibody that binds to human interleukin-6 receptor (IL-6R); light and heavy chains SEQ ID NOs. 1 and 2", "values": [
      {"measurement": "patients achieving a response (afebrile and off vasopressors for at least 24 hours) within 14 days of the first dose of TCZ", "setting": "[1]; CTL019 series, 45 patients, maximum up to two doses", "value": 69, "unit": "%"},
      {"measurement": "median time from the first dose to response", "setting": "[1]; CTL019 series", "value": 4, "unit": "days"},
      {"measurement": "patients achieving a response", "setting": "[1]; axicabtagene ciloleucel series, 15 patients", "value": 53, "unit": "%"},
      {"measurement": "median time to response", "setting": "[1]; axicabtagene ciloleucel series", "value": 4.5, "unit": "days"},
      {"measurement": "adverse reactions attributable to TCZ", "setting": "[1]; patients with CRS after CAR T-cell therapy", "value": "no reports of adverse reactions attributable to TCZ"},
      {"measurement": "geometric mean maximum concentration of TCZ", "setting": "[2]; after the first infusion", "value": 99.5, "unit": "µg/mL"},
      {"measurement": "geometric mean maximum concentration of TCZ", "setting": "[2]; after the second infusion", "value": 160.7, "unit": "µg/mL"},
      {"measurement": "clearance of TCZ (PK modeling analysis)", "setting": "[2]; patients with CRS versus healthy volunteers and other patient populations", "value": "faster clearance of TCZ than healthy volunteers and other patient populations"},
      {"measurement": "patients in whom percentage of lymphocytes in peripheral blood returned to normal", "setting": "COVID-19 pneumonia; 10/19, fifth day after treatment", "value": 52.6, "unit": "%"},
      {"measurement": "patients who had lowered their oxygen intake", "setting": "COVID-19 pneumonia; 15 of 20 patients", "value": 75.0, "unit": "%"},
      {"measurement": "patients in whom abnormally elevated CRP decreased significantly", "setting": "COVID-19 pneumonia; 16/19", "value": 84.2, "unit": "%"},
      {"measurement": "adverse drug reactions and subsequent pulmonary infections", "setting": "COVID-19 pneumonia; 21 treated patients", "value": "No adverse drug reactions and no subsequent pulmonary infections were reported"},
      {"measurement": "deaths", "setting": "COVID-19 pneumonia; 21 treated patients", "value": "no deaths among the 21 treated patients"},
      {"measurement": "fever after TCZ treatment", "setting": "COVID-19 pneumonia; TCZ IV 400 mg plus standard of care", "value": "fever returned to normal"},
      {"measurement": "patients needing no oxygen therapy", "setting": "COVID-19 pneumonia; after TCZ treatment", "value": "one patient needed no oxygen therapy"},
      {"measurement": "patients with significant remission of opacities in both lungs on CT scans", "setting": "COVID-19 pneumonia; after treatment", "value": 90.5, "unit": "%"},
      {"measurement": "patients discharged at the time of the report", "setting": "COVID-19 pneumonia; nineteen patients, including two critical patients", "value": 90.5, "unit": "%"}
    ]}
  ]
}
